Data reported in PubChem BioAssay AID212 (DTP/NCI, 2004).
Values joined by “and” are separate entries in the source; they are usually repeats but may differ in a detail not shown here. Equal values may be shown once. Records with an inconclusive call do not appear.

Tested on: BDF1 mice, colon carcinoma 38 sc, T/C %
Test: NCI In Vivo Anticancer Drug Screen. Data for tumor model Colon Carcinoma 38 (subcutaneous) in B6D2F1 (BDF1) mice
Procedure, shortened: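 T/C readout: treated group (T) measurement over vehicle control group (C) measurement. Endpoint is survival or tumor size in mice bearing a transplanted tumor.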

[1] = endpoint: median tumor weight (est.), dose: 200.0 mg/kg/injection, schedule: Q07DX002 (ip), vehicle: saline with Tween-80, higher = larger tumour
[2] = endpoint: median tumor weight (est.), dose: 400.0 mg/kg/injection, schedule: Q07DX002 (ip), vehicle: saline with Tween-80, higher = larger tumour
[3] = endpoint: median tumor weight (est.), dose: 800.0 mg/kg/injection, schedule: Q07DX002 (ip), vehicle: saline with Tween-80, higher = larger tumour

With COc1cc2cc(c1Cl)N(C)C(=O)CC(OC(=O)C(C)C)C1(C)OC1C(C)C1CC(O)(NC(=O)O1)C(OC)/C=C/C=C(C)C2 (stereo unspecified) the T/C (endpoint: median tumor weight (est.), dose: 6.2 micrograms/kg/injection, schedule: Q07DX003 (ip), vehicle: saline + alcohol, higher = larger tumour) was 109 % of control, the T/C (endpoint: median tumor weight (est.), dose: 12.5 micrograms/kg/injection, schedule: Q07DX003 (ip), vehicle: saline + alcohol, higher = larger tumour) was 90 % of control and the T/C (endpoint: median tumor weight (est.), dose: 25.0 micrograms/kg/injection, schedule: Q07DX003 (ip), vehicle: saline + alcohol, higher = larger tumour) was 88 % of control. The T/C (endpoint: median tumor weight (est.), dose: 50.0 micrograms/kg/injection, schedule: Q07DX003 (ip), vehicle: saline + alcohol, higher = larger tumour) was 79 % of control and the T/C (endpoint: median tumor weight (est.), dose: 100.0 micrograms/kg/injection, schedule: Q07DX003 (ip), vehicle: saline + alcohol, higher = larger tumour) was 93 % of control.
C/C=C/C=C1/OC(C)=C(C(C)=O)C1=O was tested, and the T/C (endpoint: median tumor weight (est.), dose: 25.0 mg/kg/injection, schedule: Q07DX002 (ip), vehicle: saline with Tween-80, higher = larger tumour) was 59 % of control and 84 % of control, the T/C [1] was 54 % of control and 57 % of control and 69 % of control and the T/C [2] was 37 % of control and 62 % of control. The T/C [3] was 100 % of control.
With C#CCNC1=C(C)C(=O)C2=C(C1=O)[C@H](COC(N)=O)[C@]1(OC)[C@@H]3N[C@@H]3CN21 the T/C (endpoint: median tumor weight (est.), dose: 1.5 mg/kg/injection, schedule: Q07DX002 (ip), vehicle: distilled water + Tween-80, higher = larger tumour) was 49 % of control, the T/C (endpoint: median tumor weight (est.), dose: 3.0 mg/kg/injection, schedule: Q07DX002 (ip), vehicle: distilled water + Tween-80, higher = larger tumour) was 78 % of control and the T/C (endpoint: median tumor weight (est.), dose: 6.0 mg/kg/injection, schedule: Q07DX002 (ip), vehicle: distilled water + Tween-80, higher = larger tumour) was 20 % of control.
For Cc1cc2c(=O)c3ccccc3oc2c(C(=O)O)c1C, the T/C (endpoint: median tumor weight (est.), dose: 50.0 mg/kg/injection, schedule: Q07DX002 (ip), vehicle: sodium bicarbonate, higher = larger tumour) was 69 % of control, the T/C (endpoint: median tumor weight (est.), dose: 100.0 mg/kg/injection, schedule: Q07DX002 (ip), vehicle: sodium bicarbonate, higher = larger tumour) was 42 % of control and the T/C (endpoint: median tumor weight (est.), dose: 200.0 mg/kg/injection, schedule: Q07DX002 (ip), vehicle: sodium bicarbonate, higher = larger tumour) was 37 % of control. For the same molecule, the T/C (endpoint: median tumor weight (est.), dose: 400.0 mg/kg/injection, schedule: Q07DX002 (ip), vehicle: sodium bicarbonate, higher = larger tumour) was 44 % of control.
With O=C1c2ccccc2C(=O)c2c(NCCNCCO)ccc(O)c21 the T/C (endpoint: median tumor weight (est.), dose: 5.0 mg/kg/injection, schedule: Q07DX002 (ip), vehicle: suspension in saline, higher = larger tumour) was 79 % of control and 95 % of control, the T/C (endpoint: median tumor weight (est.), dose: 10.0 mg/kg/injection, schedule: Q07DX002 (ip), vehicle: suspension in saline, higher = larger tumour) was 94 % of control and 99 % of control and the T/C (endpoint: median tumor weight (est.), dose: 40.0 mg/kg/injection, schedule: Q07DX002 (ip), vehicle: suspension in saline, higher = larger tumour) was 90 % of control and 96 % of control and 106 % of control. The T/C (endpoint: median tumor weight (est.), dose: 320.0 mg/kg/injection, schedule: Q07DX002 (ip), vehicle: suspension in saline, higher = larger tumour) was 74 % of control.
For Nc1nc(N)c2cc(S(=O)(=O)c3ccccc3)ccc2n1, the T/C (endpoint: median survival time, dose: 57.0 mg/kg/injection, schedule: Q06HX014 (ip), vehicle: saline with Tween-80, higher = longer survival) was 166 % of control, the T/C (endpoint: median survival time, dose: 86.0 mg/kg/injection, schedule: Q06HX014 (ip), vehicle: saline with Tween-80, higher = longer survival) was 205 % of control and the T/C (endpoint: median survival time, dose: 520.0 mg/kg/injection, schedule: Q07DX002 (ip), vehicle: saline with Tween-80, higher = longer survival) was 118 % of control. The T/C (endpoint: median tumor weight (est.), dose: 100.0 mg/kg/injection, schedule: Q07DX002 (ip), vehicle: saline with Tween-80, higher = larger tumour) was 106 % of control, the T/C [1] was 190 % of control and the T/C [2] was 169 % of control. The T/C [3] was 21 % of control.
In the case of Nc1nc([Se])c2ncn(C3OC(CO)C(O)C3O)c2n1 (stereo unspecified), the T/C (endpoint: median tumor weight (est.), dose: 4.0 mg/kg/injection, schedule: Q07DX002 (ip), vehicle: saline, higher = larger tumour) is reported as 23 % of control, the T/C (endpoint: median tumor weight (est.), dose: 4.0 mg/kg/injection, schedule: Q07DX002 (ip), vehicle: suspension in saline, higher = larger tumour) is reported as 124 % of control and the T/C (endpoint: median tumor weight (est.), dose: 4.0 mg/kg/injection, schedule: Q07DX003 (ip), vehicle: saline, higher = larger tumour) is reported as 170 % of control. The T/C (endpoint: median tumor weight (est.), dose: 8.0 mg/kg/injection, schedule: Q07DX002 (ip), vehicle: saline, higher = larger tumour) was 14 % of control, the T/C (endpoint: median tumor weight (est.), dose: 8.0 mg/kg/injection, schedule: Q07DX002 (ip), vehicle: suspension in saline, higher = larger tumour) was 112 % of control and 94 % of control and the T/C (endpoint: median tumor weight (est.), dose: 8.0 mg/kg/injection, schedule: Q07DX003 (ip), vehicle: saline, higher = larger tumour) was 93 % of control. For the same molecule, the T/C (endpoint: median tumor weight (est.), dose: 16.0 mg/kg/injection, schedule: Q07DX002 (ip), vehicle: saline, higher = larger tumour) was 20 % of control, the T/C (endpoint: median tumor weight (est.), dose: 16.0 mg/kg/injection, schedule: Q07DX002 (ip), vehicle: suspension in saline, higher = larger tumour) was 83 % of control and 86 % of control and the T/C (endpoint: median tumor weight (est.), dose: 16.0 mg/kg/injection, schedule: Q07DX003 (ip), vehicle: saline, higher = larger tumour) was 113 % of control. The T/C (endpoint: median tumor weight (est.), dose: 32.0 mg/kg/injection, schedule: Q07DX002 (ip), vehicle: saline, higher = larger tumour) was 18 % of control, the T/C (endpoint: median tumor weight (est.), dose: 32.0 mg/kg/injection, schedule: Q07DX003 (ip), vehicle: saline, higher = larger tumour) was 92 % of control and the T/C (endpoint: median tumor weight (est.), dose: 64.0 mg/kg/injection, schedule: Q07DX002 (ip), vehicle: saline, higher = larger tumour) was 20 % of control. The T/C (endpoint: median tumor weight (est.), dose: 64.0 mg/kg/injection, schedule: Q07DX002 (ip), vehicle: suspension in saline, higher = larger tumour) was 71 % of control and 92 % of control and the T/C (endpoint: median tumor weight (est.), dose: 64.0 mg/kg/injection, schedule: Q07DX003 (ip), vehicle: saline, higher = larger tumour) was 41 % of control.
